Data: patent US20080051456A1, “Glycine Reuptake Inhibitors for Treatment of Drug Dependence” (priority 2005, published 2008)
Values joined by “and” are separate entries in the source; they are usually repeats but may differ in a detail not shown here. Equal values may be shown once.

Experiments:
[1] = tested on: ethanol high preferring male Wistar rats; experiment: Limited access free choice ethanol (6% v/v) / water drinking in ethanol high preferring rats
Description: Male adult Wistar rats weighing 250-300 g (approx. 50 days old) were supplied by Beekay (Stockholm, Sweden). The animals were housed in groups of four at a constant cage temperature (25° C.) and humidity (65° C.). The animals were allowed to adapt for one week to the novel environment before any experiment (Screening for ethanol preference) was performed. They were kept under regular light-dark conditions (light on at 07:00 a.m. and off at 19:00 p.m.) with free access to standard rat feed (Beekay feed) and tap water.
Rats had continuous access to a bottle of ethanol solution in addition to the water bottle. […] The animals were subsequently housed individually in plastic cages. They had continuous access to two bottles containing either tap water or 6% ethanol solution. […] Water and ethanol intake were measured over a 6-7-week period. The amount (g) of ethanol solution consumed, in percent of total fluid intake (g), was used as an index of ethanol preference. Rats were classified as low-(<20% ethanol), medium (20%-60% ethanol), or high-(>60% ethanol) preferring based on their ethanol preference.
Ethanol (AB Svensk sprit) was dissolved (2-4-6% v/v) with regular tap water and presented in regular plastic 300 ml bottles. […] NaCl (0.9%) was used as vehicle.
To adapt to the experimental procedure, approx. 80 days old ethanol high preferring male Wistar rats were limited to drink both ethanol (6% v/v) and water for only three hours/day during one week, so called limited access (limited access) drinking. Thereafter, daily MTHMPNMglycine or vehicle administration started. MTHMPNMglycine or vehicle was injected i.p. and the rats were allowed to rest for approx. 40 min after which they were presented a choice between ethanol and water and allowed to drink for 3 hours. In the first experiment rats were challenged with MTHMPNMglycine (6 mg/kg) or vehicle for two weeks and alcohol and water intake were monitored. The experiment was preceded and ended by a limited access period.
Again the rats were treated with MTHMPNMglycine (6 mg/kg) or vehicle for 13 days. In addition, the rats were thereafter exposed to a two-week period of alcohol deprivation (limited access), during which they were allowed to drink only water 3 hours per day. After the limited access period the rats were again challenged with MTHMPNMglycine or vehicle and re-exposed to ethanol for an additional time-period of 13 days. […] The rats were presented to the water and ethanol (6% v/v) bottles approx. 40 minutes after drug administration.
The ethanol and water consumption data were statistically analysed using Analysis of variance (ANOVA) for repeated measures followed by post hoc analysis by means of Fisher's Protected Least Significant Difference (PLSD) test. Paired t-test was used for dependent comparisons between values obtained at different time-points. All values are expressed as means ±SEM. A probability value (P) less than 0.05 was considered statistically significant.
A new set of male ethanol high-preferring Wistar rats were injected i.p. with either MTHMPNMglycine or vehicle. Approx. 40 minutes after injection all rats were exposed to a free choice between ethanol (6% v/v) and water for 3 hours. First all rats received MTHMPNMglycine (6 mg/kg) or vehicle daily during 13 days.

[2] = oral administration
[3] = tested on: striatal extracellular glycine levels; settings: 6 mg/kg i.p., rat approx. 500 g; stated as expected; cited from earlier work
GlyT2 protein = target: T1, GlyT2 protein (Homo sapiens, UniProt Q9Y345); settings: relative to main action on GlyT1; cited from earlier work
T1 sequence (Q9Y345 1-797): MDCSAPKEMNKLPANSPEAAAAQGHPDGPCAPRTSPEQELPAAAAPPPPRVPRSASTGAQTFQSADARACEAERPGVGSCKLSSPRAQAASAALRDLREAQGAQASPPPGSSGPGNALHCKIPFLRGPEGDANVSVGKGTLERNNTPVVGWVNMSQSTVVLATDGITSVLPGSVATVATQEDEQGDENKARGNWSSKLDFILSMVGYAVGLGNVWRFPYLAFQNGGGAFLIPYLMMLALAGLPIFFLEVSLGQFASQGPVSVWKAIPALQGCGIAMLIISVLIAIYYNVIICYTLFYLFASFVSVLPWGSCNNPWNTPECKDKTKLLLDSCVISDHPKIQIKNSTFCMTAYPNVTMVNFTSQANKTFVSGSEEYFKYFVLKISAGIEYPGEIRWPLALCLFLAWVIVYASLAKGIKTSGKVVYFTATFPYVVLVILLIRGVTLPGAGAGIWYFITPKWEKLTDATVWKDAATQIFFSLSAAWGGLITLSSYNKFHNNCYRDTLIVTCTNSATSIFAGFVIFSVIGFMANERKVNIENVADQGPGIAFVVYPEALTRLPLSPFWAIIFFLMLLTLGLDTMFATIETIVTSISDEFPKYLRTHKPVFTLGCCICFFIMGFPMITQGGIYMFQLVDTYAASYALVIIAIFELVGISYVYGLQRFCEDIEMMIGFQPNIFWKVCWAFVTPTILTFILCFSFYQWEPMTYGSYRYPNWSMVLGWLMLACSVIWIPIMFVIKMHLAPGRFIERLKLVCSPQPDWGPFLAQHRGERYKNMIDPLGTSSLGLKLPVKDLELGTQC

[4] = 10 mg/kg, dose-finding pilot experiments

Structure (SMILES): COc1ccc2c(c1)CC[C@H](CN(C)CC(=O)O)[C@@H]2c1ccccc1 [MTHMPNMglycine]
- total fluid intake vs vehicle ([1]; Experiment 1, 6 mg/kg i.p. daily, day 4-14, group effect p=0.0004, groups also differed on day 1-3): significantly reduced
- ethanol intake vs vehicle ([1]; Experiment 1, 6 mg/kg i.p. daily, day 4-14, group effect p=0.0125): significantly reduced
- ethanol preference vs vehicle ([1]; Experiment 1, 6 mg/kg i.p. daily, day 4-14, group effect p=0.1899): no group effect
- water intake vs vehicle ([1]; Experiment 1, 6 mg/kg i.p. daily, day 4-14, group effect p=0.8713): no difference
- ethanol preference, difference vs vehicle ([1]; Experiment 2, 1.5 mg/kg i.p., day 28-29, group effect p=0.2117): totally abolished
- ethanol intake, difference vs vehicle ([1]; Experiment 2, 1.5 mg/kg i.p., day 28-29, group effect p=0.8614): totally abolished
- ethanol preference vs vehicle ([1]; Experiment 2, 3 mg/kg i.p., day 24-27, group effect p=0.1555): appeared to decrease the difference between the groups
- ethanol intake vs vehicle ([1]; Experiment 2, 3 mg/kg i.p., day 24-27, group effect p=0.2973): difference between the groups was reduced
- treatment time after which the ethanol intake reducing effect was most pronounced ([1]; Experiment 2, 6 mg/kg i.p.): 4 to 6 days
- water intake vs vehicle ([1]; Experiment 2, 6 mg/kg i.p., after alcohol deprivation, day 17-23, group effect p=0.0659): tendency to increase their water intake
- ethanol preference vs vehicle ([1]; Experiment 2, 6 mg/kg i.p., after approx. one week, day 11-16, group effect p<0.0001): significant decrease
- total fluid intake vs vehicle ([1]; Experiment 2, 6 mg/kg i.p., after four days of treatment, day 8-16, group effect p<0.0001): significantly lowered
- ethanol intake vs vehicle ([1]; Experiment 2, 6 mg/kg i.p., after one week of treatment, day 11-17, group effect p=0.0001): even more pronounced
- ethanol intake vs vehicle ([1]; Experiment 2, 6 mg/kg i.p., after two weeks of alcohol deprivation, day 17-23, group effect p=0.0348): remained significantly reduced
- ethanol preference vs vehicle ([1]; Experiment 2, 6 mg/kg i.p., after two weeks of alcohol deprivation, day 17-23, group effect p=0.0572): remained reduced, although not significantly
- total fluid intake after vs before reintroducing ethanol choice (within group) ([1]; Experiment 2, 6 mg/kg i.p., day 14 vs. day 19, paired t-test p<0.0001): significantly increased
- ethanol intake after vs before alcohol deprivation period (within group) ([1]; Experiment 2, 6 mg/kg i.p., day 14 vs. day 19, paired t-test p=0.0135): significantly increased
- water intake after vs before alcohol deprivation period (within group) ([1]; Experiment 2, 6 mg/kg i.p., day 14 vs. day 19, paired t-test p=0.0188): significantly increased their water intake
- ethanol intake vs vehicle ([1]; Experiment 2, 6 mg/kg i.p., first 6 days of treatment, day 4-10, group effect p=0.0008): significantly reduced
- ethanol preference vs vehicle ([1]; Experiment 2, 6 mg/kg i.p., first 6 days, day 4-10, group effect p=0.1300): no significant difference
- water intake vs vehicle ([1]; Experiment 2, 6 mg/kg i.p., first part of the experiment (before alcohol deprivation)): not significantly different
- total fluid intake vs vehicle ([1]; Experiment 2, after the alcohol deprivation (limited access) period): no difference
- oral dose that induced visible behavioral changes [2]: ≥ 13.5 mg/kg
- increase of striatal extracellular glycine levels [3]: 50-80% and 50-70%
- action on the GlyT2 protein (GlyT2 protein): negligible action
- duration of behavioral changes [4]: 10 to 15 min
- incidence of behavioral changes [4]: one out of ten
- gross behavior at the doses used in the study (1.5-6 mg/kg i.p., rats): behaviorally unaffected
- mean body weight vs vehicle (during the limited access/experimental time): significant lowered

Structure (SMILES): CCCOc1ccc(C2=CC3(CCN(CC(=O)O)CC3)Oc3ccccc32)cc1F [FPPSBPAA, 4-[3-fluoro-4-propoxyphenyl]-spiro[2H-1-benzopyran-2,4′-piperidine]-1′-acetic acid]
- action on the GlyT2 protein (GlyT2 protein): negligible action
